Laboratory results published in ChEMBL document CHEMBL5465560, “Selectivity Literature for EUbOPEN Chemogenomic Library” (2024).

Assays:
[1] = biological target: T1, Membrane-associated tyrosine- and threonine-specific cdc2-inhibitory kinase (Homo sapiens) (UniProt Q99640); experiment: Selectivity interaction (KinomeScan (DiscoverX)) EUB0000229b PKMYT1; conditions: at 10 µM
T1 sequence (whole entry): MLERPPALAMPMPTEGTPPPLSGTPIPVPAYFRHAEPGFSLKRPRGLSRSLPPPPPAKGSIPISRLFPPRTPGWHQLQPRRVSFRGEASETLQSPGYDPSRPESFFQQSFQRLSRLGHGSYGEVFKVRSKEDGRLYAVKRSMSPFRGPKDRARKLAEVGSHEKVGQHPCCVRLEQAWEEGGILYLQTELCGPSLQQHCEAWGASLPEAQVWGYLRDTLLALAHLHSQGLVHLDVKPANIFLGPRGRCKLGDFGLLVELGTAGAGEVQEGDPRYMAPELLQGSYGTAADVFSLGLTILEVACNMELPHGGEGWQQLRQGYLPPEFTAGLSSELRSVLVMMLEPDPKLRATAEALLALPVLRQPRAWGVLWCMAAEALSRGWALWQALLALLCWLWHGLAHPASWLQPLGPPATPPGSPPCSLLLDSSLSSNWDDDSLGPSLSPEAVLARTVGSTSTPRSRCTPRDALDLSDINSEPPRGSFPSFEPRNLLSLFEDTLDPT

[2] = biological target: T2, cGMP-dependent protein kinase 1 (Homo sapiens) (UniProt Q13976); experiment: Selectivity interaction (Upstate Kinase Profiler service (Millipore)) EUB0000056c PRKG1; conditions: at 1 µM
T2 sequence (whole entry): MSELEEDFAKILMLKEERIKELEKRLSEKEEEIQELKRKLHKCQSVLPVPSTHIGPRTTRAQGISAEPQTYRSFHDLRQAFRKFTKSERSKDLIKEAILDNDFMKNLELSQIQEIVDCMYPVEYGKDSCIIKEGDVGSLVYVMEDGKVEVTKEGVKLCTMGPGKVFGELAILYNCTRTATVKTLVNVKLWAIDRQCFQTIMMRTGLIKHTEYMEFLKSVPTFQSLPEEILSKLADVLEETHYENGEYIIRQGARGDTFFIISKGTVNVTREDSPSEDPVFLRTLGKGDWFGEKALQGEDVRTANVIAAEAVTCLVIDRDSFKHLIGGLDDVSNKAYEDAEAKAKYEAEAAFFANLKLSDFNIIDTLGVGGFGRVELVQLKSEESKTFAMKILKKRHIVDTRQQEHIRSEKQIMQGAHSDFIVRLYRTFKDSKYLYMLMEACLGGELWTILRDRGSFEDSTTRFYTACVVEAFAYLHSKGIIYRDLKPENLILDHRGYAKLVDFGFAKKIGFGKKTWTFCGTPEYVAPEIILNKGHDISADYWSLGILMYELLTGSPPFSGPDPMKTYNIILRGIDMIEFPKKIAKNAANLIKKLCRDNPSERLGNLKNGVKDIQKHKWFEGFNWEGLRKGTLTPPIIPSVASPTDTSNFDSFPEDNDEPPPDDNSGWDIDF

[3] = biological target: Serine/threonine-protein kinase Chk2 (Homo sapiens) (UniProt O96017); experiment: Selectivity interaction (Kinase panel (KiNativ target engagement assay in Jurkat cells)) EUB0001635a CHEK2; type: cell-based; conditions: at 1 µM
Chain of Serine/threonine-protein kinase Chk2 (Homo sapiens) (O96017 whole entry): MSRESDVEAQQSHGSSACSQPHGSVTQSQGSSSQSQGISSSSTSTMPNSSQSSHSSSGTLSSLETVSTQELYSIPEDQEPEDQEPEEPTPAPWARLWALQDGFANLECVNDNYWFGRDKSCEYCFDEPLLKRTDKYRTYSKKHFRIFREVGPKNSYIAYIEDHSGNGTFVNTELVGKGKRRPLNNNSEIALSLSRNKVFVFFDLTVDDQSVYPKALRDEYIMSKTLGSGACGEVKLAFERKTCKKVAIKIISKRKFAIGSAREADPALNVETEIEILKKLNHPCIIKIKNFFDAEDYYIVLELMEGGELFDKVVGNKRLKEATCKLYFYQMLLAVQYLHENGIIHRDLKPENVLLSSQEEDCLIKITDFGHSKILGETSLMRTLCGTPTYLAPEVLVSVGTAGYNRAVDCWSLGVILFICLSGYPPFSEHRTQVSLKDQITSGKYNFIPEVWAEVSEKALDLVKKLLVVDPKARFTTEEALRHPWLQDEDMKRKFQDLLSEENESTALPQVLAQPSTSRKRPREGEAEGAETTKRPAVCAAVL

[4] = biological target: Serine/threonine-protein kinase MRCK beta (Homo sapiens) (UniProt Q9Y5S2); experiment: Selectivity interaction (KinomeScan (DiscoverX)) EUB0000666a CDC42BPB; conditions: at 10 µM
Chain of Serine/threonine-protein kinase MRCK beta (Homo sapiens) (Q9Y5S2 whole entry): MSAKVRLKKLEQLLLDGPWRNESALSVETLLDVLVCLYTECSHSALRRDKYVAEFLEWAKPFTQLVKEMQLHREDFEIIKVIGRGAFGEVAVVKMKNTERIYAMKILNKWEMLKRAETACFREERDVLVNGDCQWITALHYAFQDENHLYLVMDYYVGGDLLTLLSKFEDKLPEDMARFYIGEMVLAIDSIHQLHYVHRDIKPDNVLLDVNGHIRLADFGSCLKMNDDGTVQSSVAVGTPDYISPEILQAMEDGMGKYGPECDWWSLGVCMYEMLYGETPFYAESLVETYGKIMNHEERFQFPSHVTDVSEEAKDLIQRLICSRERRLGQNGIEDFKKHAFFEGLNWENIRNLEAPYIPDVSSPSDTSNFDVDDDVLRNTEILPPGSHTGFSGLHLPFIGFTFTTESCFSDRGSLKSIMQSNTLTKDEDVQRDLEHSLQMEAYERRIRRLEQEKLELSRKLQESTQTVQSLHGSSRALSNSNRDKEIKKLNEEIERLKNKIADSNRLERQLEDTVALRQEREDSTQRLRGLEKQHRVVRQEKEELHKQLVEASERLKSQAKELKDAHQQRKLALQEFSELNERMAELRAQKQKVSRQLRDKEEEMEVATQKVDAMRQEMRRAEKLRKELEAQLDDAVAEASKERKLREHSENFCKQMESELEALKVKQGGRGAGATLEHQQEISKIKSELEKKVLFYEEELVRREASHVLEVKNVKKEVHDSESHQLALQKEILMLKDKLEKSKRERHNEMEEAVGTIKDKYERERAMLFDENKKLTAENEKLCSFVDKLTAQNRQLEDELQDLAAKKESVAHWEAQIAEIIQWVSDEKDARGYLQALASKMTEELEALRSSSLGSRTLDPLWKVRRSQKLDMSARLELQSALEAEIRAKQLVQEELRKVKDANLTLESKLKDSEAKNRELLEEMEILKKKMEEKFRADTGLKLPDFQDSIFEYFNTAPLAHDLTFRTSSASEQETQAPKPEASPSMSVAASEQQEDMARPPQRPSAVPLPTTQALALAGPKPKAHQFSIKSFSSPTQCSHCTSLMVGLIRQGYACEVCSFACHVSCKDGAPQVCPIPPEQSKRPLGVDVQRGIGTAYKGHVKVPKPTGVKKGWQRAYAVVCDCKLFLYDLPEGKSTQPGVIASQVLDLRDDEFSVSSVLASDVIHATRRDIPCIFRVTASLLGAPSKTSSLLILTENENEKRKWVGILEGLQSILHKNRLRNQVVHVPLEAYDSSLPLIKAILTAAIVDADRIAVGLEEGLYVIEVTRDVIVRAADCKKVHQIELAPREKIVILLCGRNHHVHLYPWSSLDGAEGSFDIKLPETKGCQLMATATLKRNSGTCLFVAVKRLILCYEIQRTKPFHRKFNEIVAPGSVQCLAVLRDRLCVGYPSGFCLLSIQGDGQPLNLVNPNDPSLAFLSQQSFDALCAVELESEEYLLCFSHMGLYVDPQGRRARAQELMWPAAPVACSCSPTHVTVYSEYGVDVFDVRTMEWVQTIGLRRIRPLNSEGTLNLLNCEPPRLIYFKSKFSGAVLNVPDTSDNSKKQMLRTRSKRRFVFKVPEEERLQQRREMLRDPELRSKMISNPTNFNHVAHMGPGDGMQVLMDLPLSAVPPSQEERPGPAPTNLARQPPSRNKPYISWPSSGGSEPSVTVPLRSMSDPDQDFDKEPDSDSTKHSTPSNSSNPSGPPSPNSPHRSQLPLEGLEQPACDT

[5] = biological target: Poly [ADP-ribose] polymerase 1 (Homo sapiens, UniProt P09874); experiment: Selectivity interaction (Enzymatic assay (Reaction Biology)) EUB0001632a PARP1
Chain of Poly [ADP-ribose] polymerase 1 (P09874 whole entry): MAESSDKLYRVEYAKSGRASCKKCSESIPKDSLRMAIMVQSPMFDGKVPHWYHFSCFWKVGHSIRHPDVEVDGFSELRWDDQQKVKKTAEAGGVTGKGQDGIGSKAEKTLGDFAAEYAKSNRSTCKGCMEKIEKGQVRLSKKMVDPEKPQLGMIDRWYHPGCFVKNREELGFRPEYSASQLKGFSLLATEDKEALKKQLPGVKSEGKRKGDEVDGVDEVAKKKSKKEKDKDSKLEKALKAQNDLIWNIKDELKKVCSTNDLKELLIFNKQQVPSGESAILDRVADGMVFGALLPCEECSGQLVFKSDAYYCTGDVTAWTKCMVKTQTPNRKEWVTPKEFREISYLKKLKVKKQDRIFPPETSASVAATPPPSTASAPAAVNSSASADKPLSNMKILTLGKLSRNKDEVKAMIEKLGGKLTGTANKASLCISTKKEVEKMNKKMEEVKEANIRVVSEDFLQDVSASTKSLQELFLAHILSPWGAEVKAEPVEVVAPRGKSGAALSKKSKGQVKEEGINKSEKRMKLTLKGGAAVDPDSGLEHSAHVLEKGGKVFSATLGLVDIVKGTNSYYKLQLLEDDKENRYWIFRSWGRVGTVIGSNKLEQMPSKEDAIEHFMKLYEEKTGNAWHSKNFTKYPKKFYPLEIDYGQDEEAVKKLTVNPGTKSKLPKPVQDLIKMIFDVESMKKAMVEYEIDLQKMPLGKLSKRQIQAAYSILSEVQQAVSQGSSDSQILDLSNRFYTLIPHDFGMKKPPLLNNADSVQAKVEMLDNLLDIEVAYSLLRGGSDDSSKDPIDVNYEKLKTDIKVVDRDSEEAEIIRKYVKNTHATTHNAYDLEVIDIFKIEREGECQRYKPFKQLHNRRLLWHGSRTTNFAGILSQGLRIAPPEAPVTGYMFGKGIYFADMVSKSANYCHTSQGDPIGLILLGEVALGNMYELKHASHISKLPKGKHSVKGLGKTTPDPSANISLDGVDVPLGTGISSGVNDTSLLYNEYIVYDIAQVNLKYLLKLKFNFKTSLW

[6] = biological target: Dual specificity protein kinase CLK3 (Homo sapiens, UniProt P49761); experiment: Selectivity interaction (Kinase panel (Invitrogen)) EUB0000639a CLK3; conditions: at 200 nM
Chain of Dual specificity protein kinase CLK3 (P49761 whole entry, looked up): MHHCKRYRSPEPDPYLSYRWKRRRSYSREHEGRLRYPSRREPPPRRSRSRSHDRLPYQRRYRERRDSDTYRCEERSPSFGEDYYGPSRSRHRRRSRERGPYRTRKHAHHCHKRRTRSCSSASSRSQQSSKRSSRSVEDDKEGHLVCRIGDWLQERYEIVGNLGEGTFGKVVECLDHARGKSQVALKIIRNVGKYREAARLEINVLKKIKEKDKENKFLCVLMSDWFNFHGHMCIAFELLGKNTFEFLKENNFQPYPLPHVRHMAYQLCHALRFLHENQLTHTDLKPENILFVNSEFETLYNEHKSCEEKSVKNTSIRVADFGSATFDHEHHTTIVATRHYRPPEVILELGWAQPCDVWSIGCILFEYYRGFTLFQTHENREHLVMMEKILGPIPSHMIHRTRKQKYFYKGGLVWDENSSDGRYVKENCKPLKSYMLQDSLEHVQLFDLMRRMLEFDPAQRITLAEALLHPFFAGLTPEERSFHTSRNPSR

[7] = biological target: T3, Cyclin-G-associated kinase (Homo sapiens) (UniProt O14976); experiment: Selectivity interaction (KinomeScan (DiscoverX)) EUB0000045b GAK
T3 sequence (whole entry): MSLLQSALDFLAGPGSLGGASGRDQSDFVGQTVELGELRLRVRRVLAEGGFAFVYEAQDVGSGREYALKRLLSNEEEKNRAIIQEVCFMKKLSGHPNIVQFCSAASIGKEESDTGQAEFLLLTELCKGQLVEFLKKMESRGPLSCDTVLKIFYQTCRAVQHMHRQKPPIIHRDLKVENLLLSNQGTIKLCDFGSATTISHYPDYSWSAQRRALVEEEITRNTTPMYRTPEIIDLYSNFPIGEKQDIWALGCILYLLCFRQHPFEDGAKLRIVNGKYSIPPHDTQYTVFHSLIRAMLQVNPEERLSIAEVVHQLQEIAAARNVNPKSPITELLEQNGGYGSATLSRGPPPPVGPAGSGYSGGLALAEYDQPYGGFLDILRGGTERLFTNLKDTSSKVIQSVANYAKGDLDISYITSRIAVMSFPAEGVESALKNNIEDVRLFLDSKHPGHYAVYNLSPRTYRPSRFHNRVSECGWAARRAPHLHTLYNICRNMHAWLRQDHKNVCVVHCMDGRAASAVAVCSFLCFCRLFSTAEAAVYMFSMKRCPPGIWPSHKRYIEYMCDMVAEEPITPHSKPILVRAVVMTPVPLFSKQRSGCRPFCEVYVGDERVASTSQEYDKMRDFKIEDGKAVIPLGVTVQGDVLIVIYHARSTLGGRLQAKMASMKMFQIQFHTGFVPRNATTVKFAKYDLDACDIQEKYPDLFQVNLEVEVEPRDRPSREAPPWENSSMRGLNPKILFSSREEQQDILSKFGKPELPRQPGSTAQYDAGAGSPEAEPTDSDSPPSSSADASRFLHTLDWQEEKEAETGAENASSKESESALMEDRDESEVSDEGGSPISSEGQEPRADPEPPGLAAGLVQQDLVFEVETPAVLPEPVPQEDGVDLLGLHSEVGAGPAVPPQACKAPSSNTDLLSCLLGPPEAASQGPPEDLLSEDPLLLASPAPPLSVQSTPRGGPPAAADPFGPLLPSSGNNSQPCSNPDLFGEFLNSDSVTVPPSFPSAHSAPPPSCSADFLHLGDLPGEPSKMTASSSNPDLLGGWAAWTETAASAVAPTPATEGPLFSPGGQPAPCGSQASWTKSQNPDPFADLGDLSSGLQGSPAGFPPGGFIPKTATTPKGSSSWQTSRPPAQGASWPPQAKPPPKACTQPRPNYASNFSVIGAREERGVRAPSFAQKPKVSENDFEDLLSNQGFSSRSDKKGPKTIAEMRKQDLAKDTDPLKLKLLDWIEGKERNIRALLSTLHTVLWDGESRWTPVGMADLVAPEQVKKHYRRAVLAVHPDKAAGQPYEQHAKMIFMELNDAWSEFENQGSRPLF

SMILES: COc1cc(N(C)c2ccnc3ccc(C(F)(F)F)cc23)cc(OC)c1OC
- % binding [1]: 94%

SMILES: Cc1ccc(-c2ccc3c(ccc4sc5c(c43)NC[C@@H](C)NC5=O)n2)cn1
- % of inhibition [2]: 3%

SMILES: C=CC(=O)Nc1ccc(C(=O)Nc2[nH]nc3c2CN(C(=O)N[C@H](CN(C)C)c2ccccc2)C3(C)C)cc1
- % of engagement ([3]; Selectivity number of off-targets 0.0, Selectivity number of targets 233.0, Source Knowledge https://www.sciencedirect.com/science/article/pii/S2451945619300674?via%3Dihub): 5.2%
- % of engagement [3]: 4.4%

SMILES: O=C(NOC[C@H](O)CO)c1ccc(F)c(F)c1Nc1ccc(I)cc1F
- % of control [4]: 83%

SMILES: Cn1cc(-n2cnc3c(NCc4nc5cc(Cl)c(Cl)cc5[nH]4)nc(N4CCOCC4)nc32)cn1
- IC50 [5]: > 10 µM

SMILES: CC[C@@H]1[C@H](F)C(=O)N[C@@H]1COc1nccc2cc(C(N)=O)c(OC)cc12 [ZIMLOVISERTIB]
- % of inhibition [6]: 8.76%

SMILES: C=CC(=O)Nc1cc(-n2c(=O)ccc3cnc4ccc(-c5ccc(NS(C)(=O)=O)cc5)cc4c32)ccc1C
- % of control ([7]; at 1 µM): 74%
- % of control ([7]; at 10 µM): 23%
